# Data reported in article PMC11979273, “A phase I study to evaluate the safety, tolerability, and pharmacokinetics of HEC113995PA·H2O, a novel dual-acting serotonergic antidepressant, in healthy subjects” (Frontiers in Pharmacology, 2025).
# Where two headings read alike, the source gives them in different places.
# Assay: Single ascending-dose (SAD) study, plasma pharmacokinetics
# Type: in vivo, human
# Settings: for Cmax / AUC(0-t) / k el / AUC(0-inf) / MRT / Vd/F / half-life / Tmax: both sexes, human
# Method: The study comprised a total of 7 dose groups (2.5, 5, 10, 20, 40, 60, and 80 mg groups, respectively). The first dose group (2.5 mg) consisted of 8 subjects, with 6 receiving HEC113995PA·H2O and 2 receiving placebo. Dose groups 2–7 each included 10 subjects, with 8 subjects receiving HEC113995PA·H2O and 2 subjects receiving placebo. Male and female participants were randomly assigned to the groups. Serial blood samples were collected before and after drug administration to determine the plasma concentration of pharmacokinetics (PK) and to evaluate the pharmacokinetic characteristics. The time points of blood collection and safety evaluation of PK in the second to seventh dose groups were adjusted based on the results of the first dose group. Drug safety and tolerability were evaluated on day 2 and 4 in the first dose group and on day 4 and 7 in the second to seventh dose groups. The trial was conducted in a dose-escalation manner, with progression to the next dose arm only after the safety of the previous arm had been evaluated. In the fourth group (20 mg group), in addition to blood samples, urine and stool samples were also collected for in vivo drug metabolic transformation studies.
# In the first dose group of single ascending-dose study, PK blood samples were collected at 0.5 h before administration and 0.5, 1, 1.5, 2, 2.5, 3, 4, 5, 6, 8, 10, 12, 24, 36, 48, and 72 h after administration. In other SAD groups, MAD groups and food effect study, PK blood samples were collected at 0.5 h before administration, and 1, 2, 3, 4, 5, 6, 7, 8, 10, 12, 24, 48, 72, 96, 120 and 144 h after administration. Approximately 4 mL of venous blood was obtained from each collection and placed in a vacuum collection vessel containing K2EDTA anticoagulant. The blood was centrifuged and packed according to the instruction provided by the Biological Sample Detection and Analysis Unit. Briefly, all samples were centrifuged at 4°C, 1,500 g for 10 min within 0.5 h after blood collection. After centrifugation, the plasma was aliquoted into two cryogenic storage tubes. The first tube (Tube A) contained at least 0.8 mL of plasma for analytical testing, and the remaining plasma is allocated into the backup tube (Tube B). The plasma samples were stored at −80°C within 1 h after aliquoting for further analysis.
# The concentration of HEC113995PA·H2O in human plasma samples (K2EDTA) was quantitatively analyzed using the LC-MS/MS method. Plasma samples (50 μL) were processed using protein precipitation with 5 μL deuterated internal standard (HEC124659) and 100 μL acetonitrile. The Shimadzu LCMS-8060 system coupled with a GL Sciences Inc. InertSustain AQ-C18 HP column (50 × 2.1 mm, 3 μm) achieved chromatographic separation through gradient elution using 0.04% TFA aqueous solution (pH 2.1) and acetonitrile at 0.4 mL/min. ESI-positive mode detection employed optimized parameters: 300°C interface temperature, 250°C DL temperature, 3 L/min nebulizer gas, and 400°C heating block temperature.
# Using WinNonlin 7.0 for non-compartmental analysis (NCA), pharmacokinetic (PK) parameters were meticulously calculated based on the actual sampling times for plasma, urine, and fecal samples from each subject post-administration. These parameters encompassed a comprehensive range, including the area under the concentration–time curve (AUC), AUC from time zero (pre-dose) to the time of the last measurable concentration (AUC0-t), and AUC from time zero (pre-dose) to infinity (AUC0-∞). Additionally, maximum observed plasma concentration (Cmax), time to achieve maximum plasma concentration (Tmax), terminal elimination half-life (t1/2), elimination rate constant (Ke), apparent volume of distribution (Vd/F), clearance rate (CL/F), and mean residence time (MRT) were also determined. The AUC0-t and AUC0-∞ values were computed using the linear trapezoidal rule method. Tmax and Cmax were ascertained based on the actual observed data. […]
# [1] = across single-dose groups 2.5–80 mg
compound,measurement,setting,value
Cc1nc(-c2cnc(N3CCN(CCCc4c[nH]c5ccc(C#N)cc45)CC3)nc2)sc1C(N)=O [HEC113995PA·H2O],Cl/F,"SAD single dose 2.5 mg, N = 6, mean (SD)",12.03 (3.52) L/h
same,Cl/F,"SAD single dose 5 mg, N = 8, mean (SD)",10.94 (1.75) L/h
same,Cl/F,"SAD single dose 10 mg, N = 8, mean (SD)",12.65 (3.13) L/h
same,Cl/F,"SAD single dose 20 mg, N = 8, mean (SD)",14.53 (5.78) L/h
same,Cl/F,"SAD single dose 40 mg, N = 8, mean (SD)",14.14 (4.06) L/h
same,Cl/F,"SAD single dose 60 mg, N = 8, mean (SD)",15.07 (4.58) L/h
same,Cl/F,"SAD single dose 80 mg, N = 8, mean (SD)",14 (2.41) L/h
same,"apparent clearance (CL/F), range of arithmetic means",[1],10.9380 to 15.0736 L/h
same,"elimination rate constant (Kel), range of arithmetic means",[1],0.0187 to 0.0256 h⁻¹
same,Cmax,"oral, SAD single dose 2.5 mg, N = 6, plasma, mean (SD), read-out: Cmax",5.27 ng/mL
same,Cmax,"oral, SAD single dose 5 mg, N = 8, plasma, mean (SD), read-out: Cmax",14 ng/mL
same,Cmax,"oral, SAD single dose 10 mg, N = 8, plasma, mean (SD), read-out: Cmax",24.4 ng/mL
same,Cmax,"oral, SAD single dose 20 mg, N = 8, plasma, mean (SD), read-out: Cmax",40.6 ng/mL
same,Cmax,"oral, SAD single dose 40 mg, N = 8, plasma, mean (SD), read-out: Cmax",88.5 ng/mL
same,Cmax,"oral, SAD single dose 60 mg, N = 8, plasma, mean (SD), read-out: Cmax",149 ng/mL
same,Cmax,"oral, SAD single dose 80 mg, N = 8, plasma, mean (SD), read-out: Cmax",164 ng/mL
same,AUC(0-t),"plasma, oral, 2.5 mg, SAD single dose 2.5 mg, N = 6, mean (SD), read-out: AUC0-t",177 ng·h/mL
same,AUC(0-t),"plasma, oral, 5 mg, SAD single dose 5 mg, N = 8, mean (SD), read-out: AUC0-t",439 ng·h/mL
same,AUC(0-t),"plasma, oral, 10 mg, SAD single dose 10 mg, N = 8, mean (SD), read-out: AUC0-t",801 ng·h/mL
same,AUC(0-t),"plasma, oral, 20 mg, SAD single dose 20 mg, N = 8, mean (SD), read-out: AUC0-t",1450 ng·h/mL
same,AUC(0-t),"plasma, oral, 40 mg, SAD single dose 40 mg, N = 8, mean (SD), read-out: AUC0-t",2910 ng·h/mL
same,AUC(0-t),"plasma, oral, 60 mg, SAD single dose 60 mg, N = 8, mean (SD), read-out: AUC0-t",4100 ng·h/mL
same,AUC(0-t),"plasma, oral, 80 mg, SAD single dose 80 mg, N = 8, mean (SD), read-out: AUC0-t",5650 ng·h/mL
same,k el,"plasma, oral, SAD single dose 2.5 mg, N = 6, mean (SD)",6.39e-06 s⁻¹
same,AUC(0-inf),"plasma, oral, SAD single dose 2.5 mg, N = 6, mean (SD), read-out: AUC0-∞",220 ng·h/mL
same,MRT,"plasma, oral, SAD single dose 2.5 mg, N = 6, mean (SD), read-out: MRT",44.8 h
same,Vd/F,"plasma, oral, SAD single dose 2.5 mg, N = 6, mean (SD), read-out: Vz/F",518 L
same,half-life,"plasma, oral, SAD single dose 2.5 mg, N = 6, mean (SD), read-out: t1/2 (converted)",30.3 h
same,Tmax,"plasma, oral, SAD single dose 2.5 mg, N = 6, median (min, max), read-out: Tmax",6 h
same,k el,"plasma, oral, SAD single dose 5 mg, N = 8, mean (SD)",7.11e-06 s⁻¹
same,AUC(0-inf),"plasma, oral, SAD single dose 5 mg, N = 8, mean (SD), read-out: AUC0-∞",467 ng·h/mL
same,MRT,"plasma, oral, SAD single dose 5 mg, N = 8, mean (SD), read-out: MRT",39.8 h
same,Vd/F,"plasma, oral, SAD single dose 5 mg, N = 8, mean (SD), read-out: Vz/F",430 L
same,half-life,"plasma, oral, SAD single dose 5 mg, N = 8, mean (SD), read-out: t1/2 (converted)",27.2 h
same,Tmax,"plasma, oral, SAD single dose 5 mg, N = 8, median (min, max), read-out: Tmax",5 h
same,k el,"plasma, oral, SAD single dose 10 mg, N = 8, mean (SD)",7.11e-06 s⁻¹
same,AUC(0-inf),"plasma, oral, SAD single dose 10 mg, N = 8, mean (SD), read-out: AUC0-∞",832 ng·h/mL
same,MRT,"plasma, oral, SAD single dose 10 mg, N = 8, mean (SD), read-out: MRT",39.1 h
same,Vd/F,"plasma, oral, SAD single dose 10 mg, N = 8, mean (SD), read-out: Vz/F",494 L
same,half-life,"plasma, oral, SAD single dose 10 mg, N = 8, mean (SD), read-out: t1/2 (converted)",28 h
same,Tmax,"plasma, oral, SAD single dose 10 mg, N = 8, median (min, max), read-out: Tmax",6 h
same,k el,"plasma, oral, SAD single dose 20 mg, N = 8, mean (SD)",5.19e-06 s⁻¹
same,AUC(0-inf),"plasma, oral, SAD single dose 20 mg, N = 8, mean (SD), read-out: AUC0-∞",1520 ng·h/mL
same,MRT,"plasma, oral, SAD single dose 20 mg, N = 8, mean (SD), read-out: MRT",42.2 h
same,Vd/F,"plasma, oral, SAD single dose 20 mg, N = 8, mean (SD), read-out: Vz/F",772 L
same,half-life,"plasma, oral, SAD single dose 20 mg, N = 8, mean (SD), read-out: t1/2 (converted)",38.6 h
same,Tmax,"plasma, oral, SAD single dose 20 mg, N = 8, median (min, max), read-out: Tmax",8 h
same,k el,"plasma, oral, SAD single dose 40 mg, N = 8, mean (SD)",6.08e-06 s⁻¹
same,AUC(0-inf),"plasma, oral, SAD single dose 40 mg, N = 8, mean (SD), read-out: AUC0-∞",3010 ng·h/mL
same,MRT,"plasma, oral, SAD single dose 40 mg, N = 8, mean (SD), read-out: MRT",38.1 h
same,Vd/F,"plasma, oral, SAD single dose 40 mg, N = 8, mean (SD), read-out: Vz/F",661 L
same,half-life,"plasma, oral, SAD single dose 40 mg, N = 8, mean (SD), read-out: t1/2 (converted)",32.2 h
same,Tmax,"plasma, oral, SAD single dose 40 mg, N = 8, median (min, max), read-out: Tmax",5 h
same,k el,"plasma, oral, SAD single dose 60 mg, N = 8, mean (SD)",6.11e-06 s⁻¹
same,AUC(0-inf),"plasma, oral, SAD single dose 60 mg, N = 8, mean (SD), read-out: AUC0-∞",4240 ng·h/mL
same,MRT,"plasma, oral, SAD single dose 60 mg, N = 8, mean (SD), read-out: MRT",35.3 h
same,Vd/F,"plasma, oral, SAD single dose 60 mg, N = 8, mean (SD), read-out: Vz/F",762 L
same,half-life,"plasma, oral, SAD single dose 60 mg, N = 8, mean (SD), read-out: t1/2 (converted)",36.6 h
same,Tmax,"plasma, oral, SAD single dose 60 mg, N = 8, median (min, max), read-out: Tmax",5.5 h
same,k el,"plasma, oral, SAD single dose 80 mg, N = 8, mean (SD)",6.08e-06 s⁻¹
same,AUC(0-inf),"plasma, oral, SAD single dose 80 mg, N = 8, mean (SD), read-out: AUC0-∞",5870 ng·h/mL
same,MRT,"plasma, oral, SAD single dose 80 mg, N = 8, mean (SD), read-out: MRT",40.5 h
same,Vd/F,"plasma, oral, SAD single dose 80 mg, N = 8, mean (SD), read-out: Vz/F",666 L
same,half-life,"plasma, oral, SAD single dose 80 mg, N = 8, mean (SD), read-out: t1/2 (converted)",33.4 h
same,Tmax,"plasma, oral, SAD single dose 80 mg, N = 8, median (min, max), read-out: Tmax",6 h
same,AUC(0-t),"plasma, oral, across single-dose groups 2.5–80 mg, read-out: AUC0-t, geometric mean range",172 to 5580 ng·h/mL
same,AUC(0-inf),"plasma, oral, across single-dose groups 2.5–80 mg, read-out: AUC0-∞, geometric mean range",214 to 5790 ng·h/mL
same,AUC(0-t),"plasma, oral, across single-dose groups 2.5–80 mg, read-out: AUC0–24h, geometric mean range",88.4 to 2680 ng·h/mL
same,Cmax,"plasma, oral, across single-dose groups 2.5–80 mg, read-out: Cmax, geometric mean range",5.1 to 157 ng/mL
same,Vd/F,"plasma, oral, across single-dose groups 2.5–80 mg, read-out: apparent volume of distribution (Vz/F), range of arithmetic means",430 to 772 L
same,half-life,"plasma, oral, across single-dose groups 2.5–80 mg, read-out: half-life (t1/2), range of arithmetic means",27.2 to 38.6 h
same,MRT,"plasma, oral, across single-dose groups 2.5–80 mg, read-out: mean residence time (MRT), range of arithmetic means",35.3 to 44.8 h
same,Tmax,"plasma, oral, across single-dose groups 2.5–80 mg, read-out: median time to peak plasma concentration (Tmax), range",5 to 8 h
same,AUC(0-inf),"plasma, po, SAD single dose 20 mg, N = 8, mean (SD), read-out: AUC0-∞",1520 ng·h/mL
same,Cmax higher than Vilazodone,equivalent 20 mg doses (40.6 vs. 28.5 ng/mL),42%
same,AUC0-∞ greater than Vilazodone,"equivalent 20 mg doses (1,519.6 vs. 502 h ng/mL)",threefold greater
